The test system of the assay is human primary T-cells, IL-2 stimulated proliferation (JAK-1 and JAK-3 dependent; reported as JAK3 activity). The experiment in a line: Human primary T-cell proliferation stimulated by IL-2 (Example 3). In kind it is cell-based. Particulars: tested under conditions described in Example 3 (IL-2 stimulated human primary T-cell proliferation), read-out: ability to inhibit JAK3 activity, IC50 range (Table V). The procedure, abridged: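 Peripheral-blood human T-cells pre-activated via TCR/CD28, IL-2-starved overnight, then cultured 72 h at 37 °C with compound in Yssel's medium containing IL-2 (80 U/mL in cell suspension). Proliferation read as viable-cell ATP by CellTiter-Glo luminescence; reduction versus control taken as JAK pathway inhibition.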

Where a name gives a salt, the structure may show the parent alone. Read-outs that look alike come from different tables or passages of the source. A value given as a limit tells only on which side of the number the result lay.

The IC50 is the concentration at which inhibition is half-maximal.

`Cc1cnc(Nc2cnc(N3CC4CC3CN4)c(F)c2)nc1Nc1ccc2oc(=O)[nH]c2c1` (stereo not drawn) [II-51, 5-{2-[6-(2,5-Diaza-bicyclo[2.2.1]hept-2-yl)-5-fluoro-pyridin-3-ylamino]-5-methyl-pyrimidin-4-ylamino}-3H-benzooxazol-2-one]: where the note is “Homo sapiens, T-cell”, the IC50 was less than 500 nM. With `CCOc1cc(Nc2ncc(C)c(Nc3ccc4oc(=O)[nH]c4c3)n2)ccc1OC(F)F` [Compound I-313, N2-(4-difluoromethoxy-3-ethoxy)phenyl-5-methyl-N4-(2-oxo-2,3-dihydro-1,3-benzoxazol-5-yl)-2,4-pyrimidinediamine], the IC50 was less than 500 nM. For the compound `Cc1cnc(Nc2ccc3c(c2)NC(=O)C3(C)C)nc1Nc1ccc2oc(=O)[nH]c2c1` [IV-26, 5-(2-(3,3-dimethyl-2-oxoindolin-6-ylamino)-5-methylpyrimidin-4-ylamino)benzo[d]oxazol-2(3H)-one], where the note is “Homo sapiens, T-cell”, the IC50 is less than 500 nM. On to `CCOc1cc(Nc2ncc(C)c(Nc3ccc4oc(=O)[nH]c4c3)n2)ccc1Cl` [Compound I-182, 5-[2-(4-Chloro-3-ethoxy-phenylamino)-5-methyl-pyrimidin-4-ylamino]-3H-benzooxazol-2-one], for which, where the note is “Homo sapiens, T-cell”, the IC50 was less than 500 nM. For `Cc1cnc(Nc2ccc3cn[nH]c3c2)nc1Nc1ccc2oc(=O)[nH]c2c1` [IV-4, N4-(benzo[d]oxazol-2(3H)-on-5-yl)-N2-(1H-indazol-6-yl)-5-methylpyrimidine-2,4-diamine], under “Homo sapiens, T-cell”, the IC50 is less than 500 nM. Consider `Cc1cnc(Nc2ccc(F)c(F)c2)nc1Nc1ccc2oc(=O)[nH]c2c1` [Compound I-398, N2-(3,4-difluoro)phenyl-5-methyl-N4-(2-oxo-2,3-dihydro-1,3-benzoxazol-5-yl)-2,4-pyrimidinediamine], for which the IC50 was less than 500 nM. Turning to `Cc1cnc(Nc2ccc(NS(C)(=O)=O)cc2)nc1Nc1ccc2c(c1)oc(=O)n2C` [Compound I-74, N2-((4-methylsulfonylamino)phenyl)-N4-(3-methyl-2-oxo-2,3-dihydrobenzo[d]oxazol-6-yl)-5-methylpyrimidine-2,4-diamine], the concentration for half-maximal inhibition (IC50) is less than 500 nM. `O=c1[nH]c2cc(Nc3nc(Nc4ccc(N5CCOCC5)nc4)ncc3F)ccc2o1` [II-18, N4-(benzo[d]oxazol-2(3H)-on-5-yl)-N2-((2-morpholinyl)pyridin-5-yl)-5-fluoropyrimidine-2,4-diamine]: the IC50 was less than 500 nM.

For `Cc1cnc(Nc2ccc(N3CC4CN(C)CC4C3)nc2)nc1Nc1ccc2oc(=O)[nH]c2c1` (stereo not drawn) [II-120, 5-methyl-N2-[2-(3-methyl-3,7-diazabicyclo[3.3.0]octan-7-yl)pyridin-5-yl]-N4-(2-oxo-2,3-dihydro-1,3-benzoxazol-5-yl)-2,4-pyrimidinediamine], where the note is “Homo sapiens, T-cell”, the IC50 is less than 500 nM. Still for that read-out and setting: in the case of `Cc1cnc(Nc2ccc3c(c2)NC(=O)CO3)nc1Nc1ccc2oc(=O)[nH]c2c1` [IV-25, 6-(5-methyl-4-(2-oxo-2,3-dihydrobenzo[d]oxazol-5-ylamino)pyrimidin-2-ylamino)-2H-benzo[b][1,4]oxazin-3 (4H)-one] it was less than 500 nM. As for `Cc1cnc(Nc2ccc(OC(F)F)c(CF)c2)nc1Nc1ccc2oc(=O)[nH]c2c1` [Compound I-433, 5-(2-(4-(difluoromethoxy)-3-(fluoromethyl)phenylamino)-5-methylpyrimidin-4-ylamino)benzo[d]oxazol-2(3H)-one formate salt], where the note is “Homo sapiens, T-cell”, the IC50 is less than 500 nM. For the compound `Cc1cnc(Nc2ccc3c(c2)OCO3)nc1Nc1ccc2oc(=O)[nH]c2c1` [IV-35, 5-methyl-N2-(3,4-methylenedioxy)phenyl-N4-(2-oxo-2,3-dihydro-1,3-benzoxazol-5-yl)-2,4-pyrimidinediamine], the IC50 is less than 500 nM. As for `CCN(CC)C1CCN(C(C)c2ccc(Nc3ncc(C)c(Nc4ccc5oc(=O)[nH]c5c4)n3)cc2)C1` (stereo not drawn) [Compound I-205, 5-(2-(4-(1-(3-(diethylamino)pyrrolidin-1-yl)ethyl)phenylamino)-5-methylpyrimidin-4-ylamino)benzo[d]oxazol-2(3H)-one], the IC50 (Homo sapiens, T-cell) was less than 500 nM. Turning to `Cc1cnc(Nc2ccc(N[C@@H]3CCCNC3)nc2)nc1Nc1ccc2oc(=O)[nH]c2c1` [II-107, (R)-5-(5-methyl-2-(6-(piperidin-3-ylamino)pyridin-3-ylamino)pyrimidin-4-ylamino)benzo[d]oxazol-2(3H)-one], the IC50 (Homo sapiens, T-cell) was less than 500 nM. Regarding `COc1ccc(Nc2ncc(C)c(Nc3ccc4oc(=O)[nH]c4c3)n2)cc1C#N` [Compound I-373, N2-(3-cyano-4-methoxy)phenyl-5-methyl-N4-(2-oxo-2,3-dihydro-1,3-benzoxazol-5-yl)-2,4-pyrimidinediamine], the IC50 was less than 500 nM. The same measure, in the same setting: in the case of `Cc1ccc(Nc2ncc(C)c(Nc3ccc4c(c3)oc(=O)n4C)n2)cc1NS(C)(=O)=O` [Compound I-83, N2-((3-methylsulfonylamino-4-methyl)phenyl)-N4-(3-methyl-2-oxo-2,3-dihydrobenzo[d]oxazol-6-yl)-5-methylpyrimidine-2,4-diamine] it was less than 500 nM.

As to `Cc1cnc(Nc2ccc(N3CCC(NC(=O)C(F)(F)F)C3)nc2)nc1Nc1ccc2oc(=O)[nH]c2c1` (stereo not drawn) [II-83, 2,2,2-trifluoro-N-(1-(5-(5-methyl-4-(2-oxo-2,3-dihydrobenzo[d]oxazol-5-ylamino)pyrimidin-2-ylamino)pyridin-2-yl)pyrrolidin-3-yl)acetamide], where the note is “Homo sapiens, T-cell”, the IC50 was less than 500 nM. On to `Cc1cnc(Nc2ccc(C(F)(F)F)c(Cl)c2)nc1Nc1ccc2oc(=O)[nH]c2c1` [Compound I-167, 5-[2-(3-Chloro-4-trifluoromethyl-phenylamino)-5-methyl-pyrimidin-4-ylamino]-3H-benzooxazol-2-one], for which, under “Homo sapiens, T-cell”, the IC50 was less than 500 nM. Take `Cc1cnc(Nc2cccc(-c3ccncc3)c2)nc1Nc1ccc2oc(=O)[nH]c2c1` [Compound I-289, 5-methyl-N4-(2-oxo-2,3-dihydro-1,3-benzoxazol-5-yl)-N2-[3-(pyridin-4-yl)]phenyl-2,4-pyrimidinediamine]: the half-inhibitory concentration (IC50) is less than 500 nM. Consider `Cc1cnc(Nc2cnc(N3C[C@@H]4C[C@H]3CN4C)c(C(F)(F)F)c2)nc1Nc1ccc2oc(=O)[nH]c2c1` [II-109, N4-(benzo[d]oxazolin-2(3H)-one-5-yl)-5-methyl-N2-[2-((1S,4S)-5-methyl-2,5-diazabicyclo[2.2.1]heptan-2-yl)-3-trifluoromethylpyridine-5-yl]-2,4-pyrimidinediamine], for which the IC50 (Homo sapiens, T-cell) is less than 500 nM. Consider `CS(=O)(=O)c1ccc(Nc2ncc(F)c(Nc3ccc4[nH]c(=O)[nH]c4c3)n2)cc1` [Compound I-23, N4-(benzimidazolin-2-on-5-yl)-N2-(4-methylsulfonyl)phenyl-5-fluoropyrimidine-2,4-diamine], for which the IC50 is greater than 10000 nM. Turning to `Cc1cnc(Nc2ccc3c(c2)CN(O)C3)nc1Nc1ccc2oc(=O)[nH]c2c1` [III-2, N4-(benzo[d]oxazol-2(3H)-on-5-yl)-N2-(2-hydroxyisoindolin-5-yl)-5-methylpyrimidine-2,4-diamine], where the note is “Homo sapiens, T-cell”, the IC50 is less than 500 nM. For `Cc1cc(Nc2ncc(C)c(Nc3ccc4oc(=O)[nH]c4c3)n2)c(C)cc1Cl` [Compound I-176, 5-[2-(4-Chloro-2,5-dimethyl-phenylamino)-5-methyl-pyrimidin-4-ylamino]-3H-benzooxazol-2-one], the IC50 (Homo sapiens, T-cell) lay within 500 to 5000 nM. For `Cc1cnc(Nc2cnc3c(c2)OCC(=O)N3)nc1Nc1ccc2oc(=O)[nH]c2c1` [IV-46, 5-methyl-N4-(2-oxo-2,3-dihydro-1,3-benzoxazol-5-yl)-N2-(2H-pyrido[3,2-b][1,4]oxazin-3 (4H)-one-7-yl)-2,4-pyrimidinediamine], the IC50 (Homo sapiens, T-cell) was less than 500 nM.

(Values after patent publication US10005767B2, “Compositions and methods for inhibition of the JAK pathway” (Rigel Pharmaceuticals, Inc., priority 2009, dated 2018).)
